# From patent US7772252B2, “Heterocyclic substituted carbonyl derivatives and their use as dopamine D3 receptor ligands” (Aventis Pharmaceuticals Inc., priority 2001, dated 2010)
# Molecular target: T1, cloned human dopamine D3 receptors (Homo sapiens, UniProt P35462)
# T1 construct: expressed in transfected cells; membrane homogenate
# Test: [N-Methyl-3H]Spiroperidol binding to cloned human dopamine D3 receptors
# Conditions: read-out: D3 Ki
# Summary of the method: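 Stably transfected CHO cells expressing cloned human D3 receptor were used as membranes homogenized in 10% DMSO. Ligand was [N-methyl-3H]spiroperidol displacement.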
# T1 sequence (P35462 whole entry): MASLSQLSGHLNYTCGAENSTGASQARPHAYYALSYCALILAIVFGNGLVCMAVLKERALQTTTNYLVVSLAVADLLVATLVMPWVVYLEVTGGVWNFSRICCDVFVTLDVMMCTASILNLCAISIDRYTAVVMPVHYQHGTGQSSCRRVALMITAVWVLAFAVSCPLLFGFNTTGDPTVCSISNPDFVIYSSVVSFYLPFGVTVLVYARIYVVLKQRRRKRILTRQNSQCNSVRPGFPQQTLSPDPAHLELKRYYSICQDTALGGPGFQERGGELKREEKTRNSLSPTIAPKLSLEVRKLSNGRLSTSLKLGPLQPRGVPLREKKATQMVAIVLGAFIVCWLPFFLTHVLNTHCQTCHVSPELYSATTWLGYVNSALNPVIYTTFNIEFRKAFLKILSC
row,Ki [nM],SMILES
1,11.4,O=C(N[C@H]1CC[C@H](O)CC1)[C@@H]1C[C@H]1CN1CCC(c2noc3ccsc23)CC1 [compound 830251]
2,110,O=C([C@@H]1C[C@H]1CN1CCC(c2noc3ccsc23)CC1)N1CCN(c2ccccn2)CC1 [compound 830252]
3,97.4,O=C([C@@H](O)CCN1CCC(c2noc3ccsc23)CC1)N1CCCCC1 [compound 830557]
4,34.2,O=C([C@H](O)CCN1CCC(c2noc3ccsc23)CC1)N1CCCCC1 [compound 830558]
5,547,O=C(NC1CCCCC1)[C@H](O)CCN1CCC(c2noc3ccsc23)CC1 [compound 830573]
6,8.57,O=C(NCCCc1ccccc1)[C@@H]1C[C@H]1CN1CCC(c2noc3ccsc23)CC1 [compound 830828]
7,5.3,O=C(NCCc1ccccc1)[C@@H]1C[C@H]1CN1CCC(c2noc3ccsc23)CC1 [compound 830829]
8,2.58,O=C(NCCc1c[nH]c2ccccc12)[C@@H]1C[C@H]1CN1CCC(c2noc3ccsc23)CC1 [compound 830830]
9,3.19,O=C(NCCc1c[nH]c2cc(F)ccc12)[C@@H]1C[C@H]1CN1CCC(c2noc3ccsc23)CC1 [compound 830831]
10,67.7,O=C(NCCCN1CCCC1=O)[C@@H]1C[C@H]1CN1CCC(c2noc3ccsc23)CC1 [compound 830832]
11,335,O=C(NCCCN1CCCCC1)[C@@H]1C[C@H]1CN1CCC(c2noc3ccsc23)CC1 [compound 831045]
12,2.87,O=C(NCCCCc1ccccc1)[C@@H]1C[C@H]1CN1CCC(c2noc3ccsc23)CC1 [compound 831047]
13,38.2,C[C@H]1CC[C@H](NC(=O)[C@H]2C[C@@H]2CN2CCN(c3noc4ccsc34)CC2)CC1 [compound 831082]
14,40.8,C[C@H]1CC[C@H](NC(=O)[C@H]2C[C@@H]2CN2CCC(c3cc4ccccc4s3)CC2)CC1 [compound 831147]
15,3.44,O=C(NCCc1c[nH]cn1)[C@@H]1C[C@H]1CN1CCC(c2noc3ccsc23)CC1 [compound 831192]
16,23.8,O=C([C@@H]1C[C@H]1CN1CCC(c2noc3ccsc23)CC1)N1CCC(c2ccccc2)CC1 [compound 831193]
17,5.06,O=C([C@@H]1C[C@H]1CN1CCC(c2noc3ccsc23)CC1)N1CCC(Cc2ccccc2)CC1 [compound 831194]
18,1.84,O=C(NCCCc1cccnc1)[C@@H]1C[C@H]1CN1CCC(c2noc3ccsc23)CC1 [compound 831195]
19,7.81,COc1cc2c(cc1OC)CN(C(=O)[C@@H]1C[C@H]1CN1CCC(c3noc4ccsc34)CC1)CC2 [compound 831196]
20,1.76,O=C(NCCCn1cnc(Cl)c1Cl)[C@@H]1C[C@H]1CN1CCC(c2noc3ccsc23)CC1 [compound 831198]
21,2.78,O=C([C@@H]1C[C@H]1CN1CCC(c2noc3ccsc23)CC1)N1CCc2ccccc2C1 [compound 831199]
22,5.92,O=C(NCCC1=CCCCC1)[C@@H]1C[C@H]1CN1CCC(c2noc3ccsc23)CC1 [compound 831215]

row,Ki [nM],SMILES
1,28.3,Cc1ccc(S(=O)(=O)n2nc(N3CCN(C[C@@H]4C[C@H]4C(=O)NCCCn4ccnc4)CC3)c3sccc32)cc1 [compound 831267]
2,4.08,O=C(NCCCn1ccnc1)[C@@H]1C[C@H]1CN1CCN(c2csc3cc(C(F)(F)F)ccc23)CC1 [compound 831269]
3,17.8,O=C(NCCCc1ccccc1)[C@@H]1C[C@H]1CN1CCN(c2csc3cc(C(F)(F)F)ccc23)CC1 [compound 831270]
4,6.57,O=C(NCCc1c[nH]c2ccccc12)[C@@H]1C[C@H]1CN1CCN(c2csc3cc(C(F)(F)F)ccc23)CC1 [compound 831271]
5,6.22,O=C(NCCCN1CCCC1)[C@@H]1C[C@H]1CN1CCC(c2noc3ccsc23)CC1 [compound 831272]
6,17.4,O=C(NCCc1ccccn1)[C@@H]1C[C@H]1CN1CCC(c2noc3ccsc23)CC1 [compound 831274]
7,5.38,Cc1ccc2[nH]cc(CCNC(=O)[C@@H]3C[C@H]3CN3CCC(c4noc5ccsc45)CC3)c2c1 [compound 831277]
8,18.1,CN(CCc1c[nH]c2ccccc12)C(=O)[C@@H]1C[C@H]1CN1CCC(c2noc3ccsc23)CC1 [compound 831278]
9,40.6,COc1c(F)ccc2c(C3CCN(C[C@@H]4C[C@H]4C(=O)NCCCn4ccnc4)CC3)noc12 [compound 831309]
10,103,COc1c(F)ccc2c(C3CCN(C[C@@H]4C[C@H]4C(=O)NCCCc4ccccc4)CC3)noc12 [compound 831310]
11,134,COc1ccc2c(c1)c(N1CCN(C[C@@H]3C[C@H]3C(=O)NCCCn3ccnc3)CC1)nn2-c1ccc(C(F)(F)F)cc1 [compound 831313]
12,133,COc1ccc2c(c1)c(N1CCN(C[C@@H]3C[C@H]3C(=O)NCCCc3ccccc3)CC1)nn2-c1ccc(C(F)(F)F)cc1 [compound 831314]
13,29.3,O=C(NCCCn1ccnc1)[C@@H]1C[C@H]1CN1CCN(c2n[nH]c3ccsc23)CC1 [compound 831315]
14,13.7,O=C(NCCOc1ccccc1)[C@@H]1C[C@H]1CN1CCC(c2noc3ccsc23)CC1 [compound 831343]
15,22.1,COc1ccc(CCNC(=O)[C@@H]2C[C@H]2CN2CCC(c3noc4ccsc34)CC2)cc1 [compound 831344]
16,34.4,O=C([C@@H]1C[C@H]1CN1CCC(c2noc3ccsc23)CC1)N1CCC(c2noc3ccsc23)CC1 [compound 831345]
17,17.1,COc1c(F)ccc2c(C3CCN(C[C@H]4C[C@@H]4C(=O)N[C@H]4CC[C@H](C)CC4)CC3)noc12 [compound 831360]
18,1.75,"COc1c(F)ccc2c(C3CCN(C[C@@H]4C[C@H]4C(=O)N[C@H]4CC[C@H](C)CC4)CC3)noc12 [compound 831361, 2R-[4-(6-Fluoro-7-methoxy-benzo[d]isoxazol-3-yl)-piperidin-1-ylmethyl]-1R-cyclopranecarboxylic acid (trans-4-methyl-cyclohexyl)-amide]"
19,40.3,O=C(NCCCn1cccc1)[C@@H]1C[C@H]1CN1CCC(c2noc3ccsc23)CC1 [compound 831376]
20,4.68,O=C(NCCCn1cnc2ccccc21)[C@@H]1C[C@H]1CN1CCC(c2noc3ccsc23)CC1 [compound 831377]
21,35.6,O=C(NCCCn1ccnc1-c1ccccc1)[C@@H]1C[C@H]1CN1CCC(c2noc3ccsc23)CC1 [compound 831378]
22,46.7,Cc1ncc([N+](=O)[O-])n1CCNC(=O)[C@@H]1C[C@H]1CN1CCC(c2noc3ccsc23)CC1 [compound 831379]

row,Ki [nM],SMILES
1,0.725,O=C(NCCCn1ccnc1)[C@@H]1C[C@H]1CN1CCC(c2cc3ccccc3s2)CC1 [compound 831488]
2,0.187,O=C(NCCCN1CCCCC1)[C@@H]1C[C@H]1CN1CCN(c2csc3cc(C(F)(F)F)ccc23)CC1 [compound 831491]
3,0.432,O=C(NCCCN1CCOCC1)[C@@H]1C[C@H]1CN1CCN(c2csc3cc(C(F)(F)F)ccc23)CC1 [compound 831492]
4,0.904,COc1ccc2c(c1)c(N1CCN(C[C@@H]3C[C@H]3C(=O)N[C@H]3CC[C@H](C)CC3)CC1)nn2C [compound 831768]
5,3.84,COc1ccc2c(c1)c(N1CCN(C[C@@H]3C[C@H]3C(=O)NCCCn3ccnc3)CC1)nn2C [compound 831808]
6,124,COc1cccc2c(C3CCN(C[C@@H]4C[C@H]4C(=O)N4CCC(C(=O)c5ccc(F)cc5)CC4)CC3)noc12 [compound 831810]
7,0.76,Cn1nc(N2CCN(C[C@@H]3C[C@H]3C(=O)NCCCn3ccnc3)CC2)c2sccc21 [compound 831830]
8,100,COc1cccc2c(C3CCN(C[C@@H]4C[C@H]4C(=O)NCCCn4ccnc4)CC3)noc12 [compound 831880]
9,109,O=C([C@@H]1C[C@H]1CN1CCN(c2csc3cc(C(F)(F)F)ccc23)CC1)N1CCN(Cc2ccc(Cl)c(Cl)c2)CC1 [compound 831881]
10,57.3,O=C(c1ccc(Cl)cc1)C1CCN(C(=O)[C@@H]2C[C@H]2CN2CCN(c3csc4cc(C(F)(F)F)ccc34)CC2)CC1 [compound 831882]
11,48.1,O=C([C@@H]1C[C@H]1CN1CCN(c2csc3cc(C(F)(F)F)ccc23)CC1)N1CCN(Cc2ccccc2)CC1 [compound 831883]
12,35.3,O=C(NCCN1CCCCC1)[C@@H]1C[C@H]1CN1CCN(c2csc3cc(C(F)(F)F)ccc23)CC1 [compound 831885]
13,16.8,O=C(NCCN1CCCC1)[C@@H]1C[C@H]1CN1CCN(c2csc3cc(C(F)(F)F)ccc23)CC1 [compound 831886]
14,6.5,O=C(NCCCN1CCCC1)[C@@H]1C[C@H]1CN1CCN(c2csc3cc(C(F)(F)F)ccc23)CC1 [compound 831887]
15,17.5,CN(C)CCCNC(=O)[C@@H]1C[C@H]1CN1CCN(c2csc3cc(C(F)(F)F)ccc23)CC1 [compound 831888]
16,35,Cc1cn(CCCNC(=O)[C@@H]2C[C@H]2CN2CCC(c3noc4ccsc34)CC2)cn1 [compound 831937]
17,33,Cc1cn(CCCNC(=O)[C@@H]2C[C@H]2CN2CCC(c3noc4ccsc34)CC2)c(C)n1 [compound 831938]
18,5.48,O=C(N[C@H]1CC[C@H](O)CC1)[C@@H]1C[C@H]1CN1CCC(c2cc3ccccc3s2)CC1 [compound 831950]
19,36.7,Cc1ccc(S(=O)(=O)n2nc(N3CCN(C[C@@H]4C[C@H]4C(=O)N[C@H]4CC[C@H](O)CC4)CC3)c3sccc32)cc1 [compound 831951]
20,42.8,COc1c(F)ccc2c(C3CCN(C[C@@H]4C[C@H]4C(=O)N[C@H]4CC[C@H](O)CC4)CC3)noc12 [compound 831952]

row,SMILES,Ki [nM]
1,CC[C@H]1CC[C@H](NC(=O)[C@@H]2C[C@H]2CN2CCN(c3nn(-c4ccc(C(F)(F)F)cc4)c4ccccc34)CC2)CC1 [compound 831226],26.7
2,O=C(NCCCc1ccccc1)[C@@H]1C[C@H]1CN1CCC(c2nn(-c3ccc(C(F)(F)F)cc3)c3ccccc23)CC1 [compound 831312],214
3,COc1cccc2c(C3CCN(C[C@@H]4C[C@H]4C(=O)N[C@H]4CC[C@H](C)CC4)CC3)noc12 [compound 831809],0.0284
4,O=C(N[C@H]1CC[C@H](O)CC1)[C@@H]1C[C@H]1CN1CCC(c2nn(-c3ccc(C(F)(F)F)cc3)c3ccccc23)CC1 [compound 831953],37.4
